{"source": "paper PMC7486940", "about": "“Pre-symptomatic Caspase-1 inhibitor delays cognitive decline in a mouse model of Alzheimer disease and aging” (Nature Communications, 2020)", "key": {"[1]": {"system": "APP", "assay": "APP expression and processing (real-time PCR, western blot) in J20 hippocampus", "assay_type": "in vivo, mouse", "description": "(§1) VX-765 (Adooq Bioscience, Irvine, CA, USA) was dissolved 5 mg • ml^−1 in 20% cremophor in dH2O[60] (Sigma-Aldrich, ON, Canada) and administered IPWT and J20 mice received three injections per week of either 50 mg • kg^−1 VX-765 or 20% cremophor vehicle for 4 weeks between 2 and 3 months of age. Mice were longitudinally followed starting 4 weeks after the last injection [4-week washout (WO)], then every other month at 12- and 20-week WO (6 and 8 months of age, respectively). Intermediate 8- and 16-week WO periods were also looked at with a smaller number of mice. After each WO period, animals were randomly chosen, independent of behavioural performance, for sacrifice and assigned to either histological or biochemical analysis (Fig. 2a).\nMice for biochemical analyses were isoflurane anesthetized, sacrificed by cervical dislocation, and the hippocampus and cortex dissected out and immediately frozen on dry ice. Brain tissue was homogenized in radioimmunoprecipitation assay (RIPA) buffer (50 mM Tris-HCl pH: 7.4, 1% NP-40, 0.25% Na-deoxycholate, 150 mM NaCl, 1 mM EDTA, with protease inhibitors), and supernatants placed in Laemmli (5% 2-β mercaptoethanol with protease inhibitors).\n(§2) Twenty to sixty micrograms of protein or 16 μl of precipitated protein from culture medium were separated on SDS-PAGE or 4–12% NuPAGE Bis-Tris gels (Invitrogen, Carlsbad, CA, USA) with MES buffer (Invitrogen) and transferred onto PVDF membranes (Bio-Rad) according to the manufacturer’s instructions. […] Protein levels were normalized to β-actin and expressed as a percentage relative to the vehicle-treated WT group, except for APP which was compared to the vehicle-treated J20 group. […]\nRNA was extracted with Qiazol and purified using the miRNeasy mini kit (Qiagen, CA, USA). RNA quality and quantity were determined using a spectrophotometer (DS-11 FX+, DeNovix, DE, USA) and RNA was reverse transcribed using First Strand cDNA Synthesis Kit (Qiagen) following the manufacturer’s protocol. […]"}, "[2]": {"system": "CD68", "assay": "CD68 immunostaining of phagocytic microglia and macrophages", "assay_type": "in vivo, mouse", "conditions": "VX-765-treated J20; 20-week WO; no staining in any vehicle-treated J20", "description": "as §1\n(§3) Mice for immunohistochemistry were isoflurane anesthetized and perfused with ice-cold 4% paraformaldehyde in 0.1 M PBS (Sigma-Aldrich). Brains were post-fixed overnight in 10% neutral-buffered formalin (ThermoFisher Scientific, ON, Canada) and transferred to 70% ethanol for paraffin embedding and sectioning at 4 μm. Tissue slides underwent heat-induced antigen retrieval with citrate or EDTA buffer. Immunostaining was performed using the Dako Autostainer Plus slide processor and EnVision Flex system (Dako, ON, Canada). […]"}, "[3]": {"system": "GFAP", "assay": "GFAP astrogliosis (western blot, immunostaining)", "assay_type": "in vivo, mouse", "description": "as §1\nas §3, with “buffer.” for “buffer. Immunostaining was performed using the Dako Autostainer Plus slide processor and EnVision Flex system (Dako, ON, Canada).”\nIba1-positive microglia were quantified using a modified version of an area-specific counting frame. […] Microglial activation level was determined based on morphological measurements[19],[41]. Aβ1-40 and GFAP immunostaining density was measured across four sections using ImageJ software (NIH, Bethesda, MD, USA). Quantification was blinded to treatment and genotype.\nas §2"}, "[4]": {"system": "IL-1β", "assay": "IL-1β and IL-18 levels (PCR, western blot, ELISA)", "assay_type": "in vivo, mouse", "description": "as §1\n(§4) Twenty to sixty micrograms of protein or 16 μl of precipitated protein from culture medium were separated on SDS-PAGE or 4–12% NuPAGE Bis-Tris gels (Invitrogen, Carlsbad, CA, USA) with MES buffer (Invitrogen) and transferred onto PVDF membranes (Bio-Rad) according to the manufacturer’s instructions. Membranes were probed with the following antibodies: 1:1000 mouse anti-Aβ1-16 (6E10) (BioLegend, CA, USA), 1:2000 rabbit anti-APP C-terminus (A8717) (Sigma-Aldrich), 1:1000 rabbit anti-neprilysin (Nep, Abcam, ON, Canada), 1:500 rabbit anti-insulin degrading enzyme (IDE, Abcam), 1:3000 rabbit anti-GFAP (Dako), 1:1000 rabbit anti-IL-1β (Abcam), 1:1000 rat anti-Caspase-1 (clone 4B4.2.1, kindly provided by Genentech, San Francisco, CA, USA) and 1:1000 mouse anti-β-actin (Sigma-Aldrich). […] Signals were visualized with the ImageQuant LAS 4000 imaging system and densitometric analyses were performed with Image Gauge analysis software 3.0 (Fujifilm USA, NY, USA). Protein extracts from three independent mice in each group were run together on each blot. Protein levels were normalized to β-actin and expressed as a percentage relative to the vehicle-treated WT group, except for APP which was compared to the vehicle-treated J20 group. Representative full blots are shown in the Source data file.\nELISA samples were prepared in RIPA described above. RIPA-insoluble pellets were further extracted in 70% formic acid (FA) in dH2O. FA was evaporated in a speed vacuum, and the resulting pellet was solubilized in 200 mM Tris-HCl, pH 7.5. IL-1β and Aβ levels (which include Aβ38, Aβ40 and Aβ42) were measured using Meso Scale Discovery ELISA kits (Rockville, MD, USA). Standards and samples were prepared according to the manufacturer’s protocols and run in duplicate.\nReal-time PCR experiments were performed with SYBR Green Taq Mastermix (Quanta BioSciences, MD, USA) in a real-time cycler ABI 7500 Fast Block (Applied Biosystems, CA, USA). Primer sequences are described in the supplementary material. […]"}, "[5]": {"system": "Nlrp1, Nlrp3, Asc, Casp1, Casp6, Casp11, Casp3", "assay": "inflammasome and caspase expression (PCR, Casp1 western blot)", "assay_type": "in vivo, mouse", "description": "as §1\nas §4, with “file. […]” for “file.”"}, "[6]": {"system": "Casp1", "design": "method as in PMID 30254377", "conditions": "in vitro Casp1; cited from earlier work"}, "[7]": {"conditions": "cited from earlier work"}, "[8]": {"system": "Casp11", "design": "method as in Flores et al., Nature Communications 2018", "conditions": "ref Flores et al., Nature Communications 2018; cited from earlier work"}, "[9]": {"system": "all other caspases", "design": "method as in PMID 30254377, PMID 17289835", "conditions": "cited from earlier work"}, "[10]": {"system": "experimental allergic encephalitis multiple sclerosis mouse model", "design": "method as in PMID 29895691", "conditions": "cited from earlier work"}, "[11]": {"system": "alpha-synuclein", "design": "method as in PMID 27482083", "conditions": "in vitro; cited from earlier work"}}}
{"smiles": "CCO[C@@H]1OC(=O)C[C@@H]1NC(=O)[C@@H]1CCCN1C(=O)[C@@H](NC(=O)c1ccc(N)c(Cl)c1)C(C)(C)C", "note": "[VX-765, (S)-1-((S)-2-{[1-(4-amino-3-chloro-phenyl)-methanoyl]-amino}-3,3-dimethyl-butanoyl)-pyrrolidine-2-carboxylic acid ((2R,3S)-2-ethoxy-5-oxo-tetrahydro-furan-3-yl)-amide]", "values": [{"measurement": "APP protein levels (anti-APP C-terminal antibody)", "setting": "[1]; 4- and 20-week WO", "value": "not affected"}, {"measurement": "βCTF and αCTF levels", "setting": "[1]; 4- or 20-week WO, vehicle vs VX-765", "value": "no differences in βCTF and αCTF levels"}, {"measurement": "human APP mRNA levels", "setting": "[1]; 4-, 12- or 20-week WO", "value": "did not alter"}, {"measurement": "mice with CD68 positive staining", "setting": "[2]", "value": "four out of the five"}, {"measurement": "delay of GFAP astrogliosis", "setting": "[3]; J20", "value": 3, "unit": "months"}, {"measurement": "immunopositive GFAP astrogliosis", "setting": "[3]; J20 hippocampus and cortex", "value": "prevented astrogliosis until 8- and 12-week WO in the hippocampus and cortex, respectively"}, {"measurement": "hippocampal GFAP levels (western blot)", "setting": "[3]; J20 hippocampus, 4- and 20-week WO", "value": "normalized with VX-765 treatment only at 20-week WO"}, {"measurement": "active IL-1β levels (western blot)", "setting": "[4]; J20 cortex, 20-week WO", "value": "normalized with VX-765 treatment at 20-week WO"}, {"measurement": "Il-1β mRNA", "setting": "[4]; J20 hippocampus, 16-week WO", "value": "normalized with VX-765 treatment at 16-week WO"}, {"measurement": "cortical IL-1β levels (ELISA)", "setting": "[4]; cortex, any WO", "value": "did not differ between groups at any WO"}, {"measurement": "total protein IL-1β levels (ELISA)", "setting": "[4]; hippocampus, 4-, 12-, or 20-week WO", "value": "did not differ between treatment groups"}, {"measurement": "full-length Casp1 levels (western blot)", "setting": "[5]; J20 cortex, 20-week WO", "value": "reduced full-length Casp1 levels slightly compared to vehicle-treated J20 mice, but this did not reach statistical significance"}, {"measurement": "Casp1, Casp6, Casp11 and Casp3 hippocampal mRNA levels", "setting": "[5]; hippocampus", "value": "no differences were observed"}, {"measurement": "Nlrp1, Nlrp3 and Asc hippocampal mRNA levels", "setting": "[5]; hippocampus, vehicle WT, vehicle J20, VX-765 J20", "value": "did not differ between the three treatment groups at any of the WO periods"}, {"measurement": "IC50", "setting": "[6]", "value": 3.68, "unit": "nM"}, {"measurement": "in vitro half-life (t1/2)", "setting": "[7]", "value": "~ 157 h"}, {"measurement": "IC50 for Casp11 compared to Casp1", "setting": "[8]", "value": "over 100 fold"}, {"measurement": "specificity to Casp1", "setting": "[9]", "value": "specificity to Casp1 against all other caspases"}, {"measurement": "inflammasome-related gene expression, axonal injury, behaviour", "setting": "[10]", "value": "reduce inflammasome-related gene expression, axonal injury, improve behaviour"}, {"measurement": "alpha-synuclein toxicity", "setting": "[11]", "value": "protect against alpha-synuclein toxicity"}]}
